Laboratory results: ChEMBL document CHEMBL1154172, “Synthesis and anti-inflammatory evaluation of novel angularly or linearly fused coumarins” (Eur J Med Chem, 2009)
The source made the active and inactive calls. The calls are words filed in the database; no cut-off is given here.

Columns and labels:
[1] = Antioxidant activity against Fe3+/ascorbic acid system generated hydroxyl radicals assessed as inhibition of formaldehyde production at 0.1 mM; assay type: functional; set-up: scale not given: the % may be the effect or the level left
[2] = test system: Glycine max; assay: Inhibition of soybean lipoxygenase assessed as conversion of sodium linoleate to 13-hydroperoxylinoleic acid at 0.1 mM
[3] = Antioxidant activity assessed as superoxide radical scavenging activity at 0.1 mM after 2 mins by nitroblue tetrazolium method; assay type: functional
[4] = test system: Radical scavenging activity; assay: Antioxidant activity assessed as DPPH free radical scavenging activity at 0.05 mM after 60 mins; assay type: functional
[5] = test system: Radical scavenging activity; assay: Antioxidant activity assessed as DPPH free radical scavenging activity at 0.1 mM after 60 mins; assay type: functional
[6] = test system: Radical scavenging activity; assay: Antioxidant activity assessed as DPPH free radical scavenging activity at 0.05 mM after 20 mins; assay type: functional
[7] = test system: Radical scavenging activity; assay: Antioxidant activity assessed as DPPH free radical scavenging activity at 0.1 mM after 20 mins; assay type: functional
[8] = test system: Rattus norvegicus; assay: Antiinflammatory activity in Fisher 344 rat assessed as inhibition of carrageenan-induced paw edema at 0.01 mmol/kg, ip after 3.5 hrs; assay type: functional; conditions: Fisher 344, ip
[9] = Inhibition of soybean lipoxygenase assessed as conversion of sodium linoleate to 13-hydroperoxylinoleic acid; set-up: species or system Glycine max
[10] = test system: Rattus norvegicus; assay: Toxicity in Fisher 344 rat assessed as body weight change per 100 g of animal at 0.01 mmol/kg, ip administered daily once for 4 days measured after 24 hrs final post dose; assay type: organism-based; conditions: in vivo
[11] = test system: Rattus norvegicus; assay: Toxicity in Fisher 344 rat assessed as gastrointestinal ulcer at 0.01 mmol/kg, ip administered daily once for 4 days measured after 24 hrs final post dose; assay type: organism-based; conditions: in vivo
[12] = test system: Rattus norvegicus; assay: Toxicity in Fisher 344 rat assessed as melena defecation at 0.01 mmol/kg, ip administered daily once for 4 days measured after 24 hrs final post dose; assay type: organism-based; conditions: in vivo
[13] = Toxicity in Fisher 344 rat assessed as mortality at 0.01 mmol/kg, ip administered daily once for 4 days measured after 24 hrs final post dose; assay type: organism-based; conditions: in vivo, read-out: Activity

inhibition [2] [%] | IC50 [9] [µM] | Compound | Activity [1] | Activity [3] | Activity [4] [%] | Activity [5] | Activity [6] [%] | Activity [7] | inhibition in vivo at 10 µmol/kg [8] [%] | Activity [10] [g] | Activity [11] [%] | Activity [12] | mortality at 24 h [13] [%]
78 | – | COC(=O)c1cc(=O)oc2cc3c(cc12)CCCC3 | 74% | 100% | 21 | 25% | 12 | 12% | 43.4 | – | – | – | –
0 | – | COC(=O)c1cc(=O)oc2cc3c(cc12)OCO3 | 78% | – | 18 | 21% | 12 | 9% | 45.5 | – | – | – | –
– | 100 | COC(=O)c1cc(=O)oc2c3c(ccc12)CCCC3 | inactive | inactive | 31 | inactive | 27 | inactive | 62 | – | – | – | –
4 | – | O=c1ccc2ccc3c(c2o1)CCCC3 | inactive | 16% | 15 | inactive | 25 | inactive | 54 | – | – | – | –
31 | – | COC(=O)c1cc(=O)oc2ccc3c(c12)CCCC3 | 53% | inactive | 17 | 20% | 14 | 18% | 34 | – | – | – | –
10 | – | COC(=O)c1cc(=O)oc2cc3c(cc12)CCC3 | 64% | – | 22 | 27% | 19 | 14% | – | – | – | – | –

The next lines start with the compound.

Compound | inhibition [2] [%] | IC50 [9] [µM] | Activity [1] | Activity [3] | Activity [4] [%] | Activity [5] | Activity [6] [%] | Activity [7] | inhibition in vivo at 10 µmol/kg [8] [%] | Activity [10] [g] | Activity [11] [%] | Activity [12] | mortality at 24 h [13] [%]
COC(=O)c1cc(=O)oc2c3c(ccc12)OC(C)(C)C3 | 4 | – | 72% | inactive | 12 | inactive | 11 | inactive | 65 | 2.5 | 0 | Toxic | 0
O=C(O)/C=C/c1ccc(O)c(O)c1 [CAFFEIC ACID] | – | 600 | – | 46% | – | – | – | – | – | – | – | – | –
Cc1c(C)c2c(c(C)c1O)CCC(C)(C(=O)O)O2 (centres undefined) | – | – | 88% | – | – | – | – | – | – | – | – | – | –
CC(Cc1ccc(O)c(O)c1)C(C)Cc1ccc(O)c(O)c1 (centres undefined) | – | – | – | – | 81 | 83% | 63 | 65% | – | – | – | – | –
COc1ccc2c(c1)c(CC(=O)O)c(C)n2C(=O)c1ccc(Cl)cc1 [INDOMETHACIN] | – | – | – | – | – | – | – | – | 47 | -9 | 78 | Non-toxic | 50
